According to ChEMBL document CHEMBL3044791, “Synthesis and Structure-Activity Relationships of Vasicine Analogues as Bronchodilatory Agents” (2005):

Legend:
[1] = tested on: Tissue; assay: Bronchodilatory activity in histamine-precontracted Cavia porcellus (guinea pig) trachea at 30 ug/ml; format: functional
[2] = tested on: Tissue; assay: Bronchodilatory activity in acetylcholine-precontracted Cavia porcellus (guinea pig) trachea at 30 ug/ml; format: functional

Row | SMILES | Activity [1] | Activity [2]
1 | O=c1c2ccccc2nc2n1CCCC2 | 40% | –
2 | O=c1c2ccccc2nc2n1CCCCC2 | 100% | 100%
3 | O=c1c2cc3c(cc2nc2n1CCCCC2)OCO3 | 100% | 100%
4 | Cc1nc2ccccc2c(=O)n1-c1ccc(F)cc1 | 80% | –
5 | CCc1nc2ccccc2c(=O)n1-c1ccccc1 | 100% | –
6 | O=C1CC(c2ccccc2)N=C2CCCCN12 (centres undefined) | 20% | –
7 | O=C1CC(c2ccccc2)N=C2CCCCCN12 (centres undefined) | 50% | 30%
8 | Cc1nc2ccccc2c(=O)n1-c1ccccc1 | 100% | –
9 | CCCc1nc2ccccc2c(=O)n1-c1ccccc1 | 50% | –
10 | CCCc1nc2ccccc2c(=O)n1-c1ccc(F)cc1 | 10% | –
11 | O=c1c2cc3c(cc2nc2n1CCCC2)OCO3 | 50% | 40%
12 | CCc1nc2ccccc2c(=O)n1-c1ccc(F)cc1 | 20% | –
13 | O=c1c2ccccc2nc2n1CCC2 [DEOXYVASICINONE] | 20% | –
14 | Cn1c(=O)c2c(ncn2CCO)n(C)c1=O [ETOFYLLINE] | 40% | 40%
